Reference: publication PMC4314249, “Characterizing the Peroxisome Proliferator-Activated Receptor (PPARγ) Ligand Binding Potential of Several Major Flame Retardants, Their Metabolites, and Chemical Mixtures in House Dust” (Environmental Health Perspectives, 2014)
Like-named read-outs stand apart in the source and are kept apart here.

Experiments:
[1] = molecular target: T1, human PPARγ ligand-binding domain (Homo sapiens, UniProt P37231); test: PolarScreen PPARγ-Competitor fluorescence polarization ligand binding assay
T1 construct: The kit uses the human-derived recombinant PPARγ LBD tagged with an N-terminal GST-tag; purchased Invitrogen
T1 sequence (P37231 238-503 limits assumed): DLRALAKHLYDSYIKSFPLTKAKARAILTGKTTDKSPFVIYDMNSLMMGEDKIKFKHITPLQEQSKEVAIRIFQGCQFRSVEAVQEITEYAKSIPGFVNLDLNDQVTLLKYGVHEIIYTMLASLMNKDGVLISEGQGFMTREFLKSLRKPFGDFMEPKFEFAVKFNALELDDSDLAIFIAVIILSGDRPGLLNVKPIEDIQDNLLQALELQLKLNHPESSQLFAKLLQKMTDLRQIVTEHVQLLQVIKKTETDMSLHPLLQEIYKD

PPARγ2 = system: PPARγ2; set-up: method as in Suzuki et al. (2013); settings: U2OS reporter assay; ref Suzuki et al. (2013); cited from earlier work
[2] = MEHP formation on incubation of dust with S9 fraction; assay type: in vitro ADME, Sprague-Dawley rats
Description: Bioactivation of dust samples. We assessed the influence of biotransformation on ligand binding activity by incubating dust extracts in pooled liver S9 fractions prepared from Sprague-Dawley rats [Rat (Sprague-Dawley) S9 Fractions; Gibco, Grand Island, NY). Bioactivation was assessed in 7 of the 23 dust samples (1 dust sample was tested in triplicate, while the others were tested once because of dust mass limitations) and in SRM 2585 (n = 3). The 7 dust samples were from groups A (samples 5, 7, and 8), B (samples 9 and 10), and C (samples 11 and 12). The influence of biotransformation was also investigated using pure chemical standards. DEHP (100 μM) and a mixture (MIX) containing 1 μM each of FM550, isopropylated triaryl phosphate (ITP), BDE-47, BDE-99, and DEHP were evaluated for binding activity before and after bioactivation. For a detailed description of the method, see Supplemental Material, “Bioactivation of Dust Samples” and Figure S3. Briefly, dust samples were bioactivated by incubation with an S9 fraction (1 mg protein/mL), extracted, and cleaned by dextran-assisted liquid–liquid extraction and phenolic extraction. […]
For each dose level of tested compounds, triplicate samples were prepared and each well was read five times in the plate reader. […]

PPARγ LBD = molecular target: T2, PPARγ LBD (Homo sapiens, UniProt P37231); test: PPARγ competitive binding after bioactivation with rat liver S9 fraction (active vs inactive S9); settings: 100 μM, n = 3, rat liver S9
T2 construct: The kit uses the human-derived recombinant PPARγ LBD tagged with an N-terminal GST-tag; purchased Invitrogen
T2 sequence (P37231 238-503 limits assumed): T1 sequence (P37231 238-503 limits assumed)

[3] = read-out: Kd (dissociation constant)
[4] = calculated from IC50 by equation 3, read-out: Kd (dissociation constant)

In the case of `Oc1cc(Oc2ccc(Br)cc2Br)c(Br)cc1Br` [5-OH-BDE-47], the Relative potency [1] is reported as 0.0744, the IC50 ([1]; read-out: IC50) is reported as 3.09 µM and the Kd [1, 3] is reported as 1.61 µM.
In the case of `Brc1ccc(Oc2ccc(Br)cc2Br)c(Br)c1` [BDE-47, 2,2´,4,4´-tetrabromodiphenyl ether], the 5% induction concentration (PPARγ2) is listed as 10 µM, the IC50 ([1]; read-out: IC50) is listed as over 12 µM and the Kd [1, 3] is listed as over 6.25 µM.
`Oc1cc(Cl)ccc1Oc1ccc(Cl)cc1Cl` [Triclosan, triclosan] gave an IC50 [1] of 12.5 µM, a Kd [1] of 6.52 µM and a Relative potency [1] of 0.0184.
With `CCCCC(CC)COC(=O)c1c(Br)c(Br)c(Br)c(Br)c1C(=O)OCC(CC)CCCC` (centres unmarked) [TBPH, bis(2-ethylhexyl) tetrabromophthalate] the IC50 [1] was over 250 µM, the Kd [1] was over 130 µM and the “PPARγ binding (in words)” value [1] was “did not show any binding activity”.
Compound `Oc1c(F)cc(F)cc1F` [2,4,6-TFP, 2,4,6-trifluorophenol] has a Kd [1, 4] of over 130 µM and an IC50 ([1]; read-out: IC50) of over 250 µM.
`O=C(O)c1cc(Br)c(Br)c(Br)c1Br` [TBBA, 2,3,4,5-tetrabromo benzoic acid] gave an IC50 [1] of 42 µM, a Kd [1] of 22.1 µM and a Relative potency [1] of 0.0055.
Work on `Oc1c(Cl)cc(Cl)cc1Cl` [2,4,6-TCP, 2,4,6,-trichlorophenol] yielded a Relative potency [1] of 0.0023, an IC50 ([1]; read-out: IC50) of 100 µM and a Kd [1, 3] of 52.2 µM.
`Oc1c(I)cc(I)cc1I` [2,4,6-TIP, 2,4,6-triiodophenol] showed an IC50 [1] of 1.84 µM, a Kd [1] of 0.96 µM and a Relative potency [1] of 0.1250.
With `CCCCC(CC)COC(=O)c1ccccc1C(=O)O` (centres unmarked) [MEHP, mono(2-ethylhexyl) phthalate] the MEHP formation rate [2] was “approximately 70 pmol/mg protein/min”.
For `CCCCC(CC)COC(=O)c1cc(Br)c(Br)c(Br)c1Br` (centres unmarked) [TBB, 2-ethylhexyl-2,3,4,5-tetrabromobenzoate], the IC50 [1] was over 250 µM, the Kd [1] was over 130 µM and the “PPARγ binding (in words)” value [1] was “did not show any binding activity”.
`Oc1c(Br)cc(Br)cc1Br` [2,4,6-TBP, 2,4,6-Tribromophenol] gave an IC50 [1] of 36.3 µM, a Kd [1] of 18.9 µM and a Relative potency [1] of 0.0063.
For `CCCCC(CC)COC(=O)c1ccccc1C(=O)OCC(CC)CCCC` (centres unmarked) [DEHP, di-(2-ethylhexyl) phthalate], the Kd [1, 4] was over 130 µM, the IC50 ([1]; read-out: IC50) was over 250 µM and the “change of PPARγ binding potency after bioactivation (in words)” value (PPARγ LBD) was “slightly increased”.
Work on `CCCCOCCOP(=O)(OCCOCCCC)OCCOCCCC` [TBEP, tris(2-butoxyethyl) phosphate] yielded an IC50 [1] of 103 µM, a Kd [1] of 53.7 µM and a Relative potency [1] of 0.0022.
In the case of `Oc1cc(Br)cc(Br)c1Oc1ccc(Br)cc1Br` [6-OH-BDE-47], the “PPARγ binding (in words)” value [1] is reported as “not active ligands”, the Relative potency [1] is reported as under 0.023 and the IC50 ([1]; read-out: IC50) is reported as over 10 µM. The Kd [1, 3] was over 5.22 µM.
With `CC(C)(c1cc(Cl)c(O)c(Cl)c1)c1cc(Cl)c(O)c(Cl)c1` [TCBPA, 3,3´,5,5´-tetrachlorobisphenol A] the Relative potency [1] was 0.0444, the IC50 ([1]; read-out: IC50) was 5.18 µM and the Kd [1, 3] was 2.7 µM.
For `O=P(O)(Oc1ccccc1)Oc1ccccc1` [DPP, diphenyl phosphate], the IC50 [1] was 627 µM, the Kd [1] was 327 µM and the Relative potency [1] was 0.0004.
In the case of `Brc1ccc(Oc2cc(Br)c(Br)cc2Br)c(Br)c1` [BDE–99, 2,2´,4,4´,5-pentabromodiphenyl ether], the “PPARγ binding (in words)” value [1] is reported as “no binding was observed”, the IC50 ([1]; read-out: IC50) is reported as over 250 µM and the Kd [1, 3] is reported as over 130 µM.
Compound `[Cl][Sn]([c]1ccccc1)([c]1ccccc1)[c]1ccccc1` [TPT, triphenyltin chloride] has a Relative potency [1] of 0.1337, an IC50 ([1]; read-out: IC50) of 1.72 µM and a Kd [1, 3] of 0.9 µM.
`Oc1cc(Oc2cc(Br)c(Br)cc2Br)c(Br)cc1Br` [5´-OH-BDE-99] gave a Relative potency [1] of 0.0077, an IC50 ([1]; read-out: IC50) of 30 µM and a Kd [1, 3] of 15.7 µM.
In the case of `CC(C)(c1ccc(O)cc1)c1ccc(O)cc1` [BPA, bisphenol A], the “PPARγ binding (in words)” value [1] is reported as “did not exhibit any binding”, the IC50 ([1]; read-out: IC50) is reported as over 250 µM and the Kd [1, 3] is reported as over 130 µM.
Compound `Oc1c(Br)ccc(Oc2ccc(Br)cc2Br)c1Br` [3-OH-BDE-47] has a Relative potency [1] of 0.9583, an IC50 ([1]; read-out: IC50) of 0.24 µM and a Kd [1, 3] of 0.13 µM.
In the case of `Oc1cc(Br)cc(Br)c1Oc1cc(Br)c(Br)cc1Br` [6´-OH-BDE-99], the “PPARγ binding (in words)” value [1] is reported as “not active ligands”, the Relative potency [1] is reported as under 0.0046 and the IC50 ([1]; read-out: IC50) is reported as over 50 µM. The Kd [1, 3] was over 26.1 µM.
`O=P(Oc1ccccc1)(Oc1ccccc1)Oc1ccccc1` [TPP, triphenyl phosphate] showed an IC50 [1] of 40 µM, a Kd [1] of 20.9 µM and a Relative potency [1] of 0.0058.
